The values that follow come from ChEMBL document CHEMBL4390638, “SYA 013 analogs as moderately selective sigma-2 (σ2) ligands: Structure-affinity relationship studies” (Bioorg Med Chem, 2019).

pKi: −log10 of the molar value.

Test [1] deals with Sigma non-opioid intracellular receptor 1 (Homo sapiens, UniProt Q99720). Nature of the test: Displacement [3H]-Pentazocine from sigma 1 receptor (unknown origin) expressed in HEK cell membranes. The following applies: for pKi: read-out: Ki.
In test [2] the target is Sigma intracellular receptor 2 (Homo sapiens, UniProt Q5BJF2). The test can be described thus: Displacement [3H]-DTG from sigma 2 receptor (unknown origin) expressed in HEK cell membranes.
The species named for the next test is Homo sapiens. Nature of the test: Selectivity index, ratio of Ki for displacement [3H]-Pentazocine from sigma 1 receptor (unknown origin) expressed in HEK cell membranes to Ki for [3H]-DTG from sigma 2 receptor (unknown origin) expressed in HEK cell membranes.

A word on the pKi: it is the Ki on a negative log10 scale, so that one unit is a factor of ten.

Sigma non-opioid intracellular receptor 1, sequence (Q99720 whole entry): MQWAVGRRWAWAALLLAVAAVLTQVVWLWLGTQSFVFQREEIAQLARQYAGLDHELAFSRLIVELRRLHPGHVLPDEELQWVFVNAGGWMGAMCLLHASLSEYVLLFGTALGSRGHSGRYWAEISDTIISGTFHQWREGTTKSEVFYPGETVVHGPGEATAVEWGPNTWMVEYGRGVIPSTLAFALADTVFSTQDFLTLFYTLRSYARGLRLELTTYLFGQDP
Sigma intracellular receptor 2, sequence (Q5BJF2 whole entry): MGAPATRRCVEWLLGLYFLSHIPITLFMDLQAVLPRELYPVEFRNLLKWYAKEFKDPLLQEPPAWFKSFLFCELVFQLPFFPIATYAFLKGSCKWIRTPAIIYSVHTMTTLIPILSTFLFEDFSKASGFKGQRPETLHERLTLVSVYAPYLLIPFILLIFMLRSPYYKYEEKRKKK

For `O=C(CCCN1CCCN(c2ccccn2)CC1)c1ccc(F)cc1`, the Ki in test [1] (read-out: pKi (converted)) is 457 nM. In test [2], this compound had a pKi of 7.49. In addition, the Ratio Ki in the test listed under Homo sapiens turned out to be 14.
With `OC1(c2ccc(Cl)cc2)CC2CCC(C1)N2CCCSc1ccccc1F` (stereo unspecified), the negative logarithm of the Ki (pKi) in test [1] is 7.24; in test [2], 8.66. Further, the Ratio Ki in the test filed under Homo sapiens stood at 25.9.
For `Clc1ccc(N2CCN(CCCOc3ccccc3)CC2)cc1`, in that order: 7.29, 7.48 and 1.6.
For `[O-][S+](CCCN1CCN(c2ccc(Cl)cc2)CC1)c1ccc(F)cc1` (stereo unspecified), in that order: 5.94, 6.22 and 1.9.
For `Fc1ccc(SCCCN2CCCN(c3ccc(Cl)cn3)CC2)cc1`, in that order: 8.14, 8.66 and 3.3.
As for `O/N=C(/CCCN1CCCN(c2ccccn2)CC1)c1ccc(F)cc1`, the pKi in test [1] is 7.15; in test [2] it was 7.88. The Ratio Ki in the test filed under Homo sapiens is 5.3.
For `Fc1ccc(OCCCN2CCCN(c3ccc(Cl)cc3)CC2)cc1`, in that order: 8.54, 8.23 and 0.5.
For the compound `OC1(c2ccc(Cl)cc2)CC2CCC(C1)N2CCCSc1ccc(F)cc1` (stereo unspecified), the pKi in test [1] is 7.09.
Regarding `O=C(CCCN1CCCN(c2ccc(Cl)cn2)CC1)c1ccc(F)cc1`, the values for the negative logarithm of the Ki (pKi) in test [1] and in test [2] were 7.52 and 8.10, respectively. In addition, in the test listed under Homo sapiens, the Ratio Ki was determined as 3.8.
For `OC1(c2ccc(Cl)cc2)CC2CCC(C1)N2CCCSc1cccc(F)c1` (stereo unspecified), in that order: 7.15, 8.09 and 8.8.
For `Fc1ccc(OCCCN2CCN(c3ccccc3)CC2)cc1`, in that order: 7.38, 8.29 and 8.1.
For `O=C(CCCN1CCN(c2ccccn2)CC1)c1ccc(F)cc1` [AZAPERONE], in that order: 6.39, 7.28 and 7.8.
For the compound `O=C(CCCN1CCCN(c2ncccn2)CC1)c1ccc(F)cc1`, the negative logarithm of the Ki (pKi) was 7.20 in test [1] and 7.36 in test [2]. For the same compound, in the test filed under Homo sapiens, the Ratio Ki is 1.4.
On to `O/N=C(/CCCN1CCCN(c2ccc(Cl)cn2)CC1)c1ccc(F)cc1`, for which the pKi in test [1] was 6.95; in test [2] it was 8.57. Moreover, in the test listed under Homo sapiens, the Ratio Ki came to 41.8.
As for `OC1(c2ccc(Cl)cc2)CC2CCC(C1)N2CCCOc1ccc(F)cc1` (stereo unspecified), the pKi in test [1] was 6.78; in test [2], 7.74.
As for `Fc1ccc(CCCCN2CCN(c3ccc(Cl)cc3)CC2)cc1`, the pKi in test [1] was 7.44.
Take `O=C(CCCN1CCN(c2ccc(Cl)cn2)CC1)c1ccc(F)cc1`: the results for the negative-log Ki (pKi) in test [1] and in test [2] were 7.60 and 8.08, respectively. Also, the Ratio Ki in the test listed under Homo sapiens came out at 3.
For `Fc1ccc(CCCCN2CCN(c3ccc(Cl)cn3)CC2)cc1`, in that order: 7.02, 7.37 and 2.2.
For `c1ccc(OCCCN2CCN(c3ccccc3)CC2)cc1`, in that order: 7.11, 7.60 and 3.1.
With `Fc1ccc(CCCCN2CCCN(c3ccc(Cl)cc3)CC2)cc1`, the pKi in test [1] is 8.44; in test [2] it was 8.07. Further, in the test listed under Homo sapiens, the Ratio Ki was 0.4.
For `OC1(c2ccc(Cl)cc2)CC2CCC(C1)N2CCCCc1ccc(F)cc1` (stereo unspecified), in that order: 7.66, 7.57 and 0.8.
For `O/N=C(/CCCN1CCCN(c2ncccn2)CC1)c1ccc(F)cc1`, in that order: 6.83, 7.59 and 5.7.
